Measurements taken from the supplement of paper PMC10307832.

Assays:
Test in all cases: relative viability (nuclei count vs DMSO), 5 days (fraction); higher = more cells survive
[1] = compound: C1CC1C(=O)NC2=NNC3=C2C=CC(=C3)C4=CC(=CC=C4)C(=O)NC5CC5 [XMD13-2] + CS(=O)(=O)N1CCN(Cc2cc3nc(-c4cccc5[nH]ncc45)nc(N4CCOCC4)c3s2)CC1 [Pictilisib] (partner 1 µM)
Procedure, shortened: (§1)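 Relative viability divides the nuclei count in treated wells by that in vehicle wells. Lung cancer cell lines were seeded in 1536-well plates, dosed by pin tool the next day, and fixed and stained after 5 days in one step with final 0.05% Triton X-100, 1% formaldehyde and 1 ug/ml Hoechst. Dosing was a single drug or a fixed anchor-drug dose plus five library-drug doses (not always all listed) in √10 steps, and values are medians of duplicate plates imaged at 4×.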

[2] = compound: Cc1ccc(C(=O)Nc2cccc(C(F)(F)F)c2)cc1Nc1cncc(C(N)=O)c1 [ALW-II-49-7] + Nc1nc2[nH]cc(CCc3ccc(C(=O)N[C@@H](CCC(=O)O)C(=O)O)cc3)c2c(=O)[nH]1 [Pemetrexed] (partner 0.2 µM)
Procedure, shortened: as §1

[3] = compound: Cc1nc(Nc2ncc(C(=O)Nc3c(C)cccc3Cl)s2)cc(N2CCN(CCO)CC2)n1 [Dasatinib] + CC(=O)c1c(C)c2cnc(Nc3ccc(N4CCNCC4)cn3)nc2n(C2CCCC2)c1=O [Palbociclib] (partner 0.5 µM)
Procedure, shortened: as §1

[4] = compound: Cc1nc(Nc2ncc(C(=O)Nc3c(C)cccc3Cl)s2)cc(N2CCN(CCO)CC2)n1 [Dasatinib] + C[C@]1(O)C[C@@H](c2nc(-c3ccc4ccc(-c5ccccc5)nc4c3)c3c(N)nccn32)C1 [Linsitinib] (partner 1 µM)
Procedure, shortened: as §1

Cell Line | relative viability ([1]; first compound 0.05 µM) | relative viability ([1]; first compound 0.1581 µM) | relative viability ([1]; first compound 0.5 µM) | relative viability ([1]; first compound 1.581 µM) | relative viability ([1]; first compound 5 µM) | relative viability ([2]; first compound 0.08 µM) | relative viability ([2]; first compound 0.253 µM) | relative viability ([2]; first compound 0.8 µM) | relative viability ([2]; first compound 2.53 µM) | relative viability ([2]; first compound 8 µM) | relative viability ([3]; first compound 0.005 µM) | relative viability ([3]; first compound 0.01581 µM) | relative viability ([3]; first compound 0.05 µM) | relative viability ([3]; first compound 0.1581 µM) | relative viability ([3]; first compound 0.5 µM) | relative viability ([4]; first compound 0.005 µM) | relative viability ([4]; first compound 0.01581 µM) | relative viability ([4]; first compound 0.05 µM) | relative viability ([4]; first compound 0.1581 µM) | relative viability ([4]; first compound 0.5 µM)
HCC-827 | 1.01 | 0.901 | 1.18 | 0.913 | 0.67 | 0.275 | 0.259 | 0.173 | 0.176 | 0.25 | 0.438 | 0.458 | 0.419 | 0.135 | 0.114 | 1.03 | 1.05 | 0.971 | 0.581 | 0.102
NCI-H322M | 0.593 | 0.495 | 0.451 | 0.501 | 0.578 | 0.609 | 0.79 | 0.659 | 0.682 | 0.537 | 0.435 | 0.382 | 0.365 | 0.326 | 0.228 | 1.04 | 0.703 | 0.708 | 0.319 | 0.196
ChaGo-K-1 | 0.82 | 0.631 | 0.461 |  | 0.599 | 0.266 | 0.274 | 0.263 | 0.268 | 0.262 | 0.947 | 0.881 | 0.892 | 0.802 | 0.634 |  |  |  |  | 
BEN | 0.663 | 0.535 | 0.585 | 0.562 | 0.523 | 0.8 | 0.88 | 0.757 | 0.902 | 0.81 | 0.448 | 0.387 | 0.43 | 0.365 | 0.34 | 0.776 | 0.476 | 0.531 | 0.38 | 0.322
NCI-H2347 | 0.743 | 0.655 | 0.826 | 0.827 | 0.387 | 0.438 | 0.441 | 0.417 | 0.509 | 0.377 | 0.393 | 0.438 | 0.415 | 0.329 | 0.224 | 1.01 | 0.935 | 0.943 | 0.402 | 0.159
LOU-NH91 | 0.565 | 0.506 | 0.524 | 0.494 | 0.511 | 0.298 | 0.361 | 0.35 |  | 0.338 | 0.569 | 0.51 | 0.553 | 0.498 | 0.369 | 0.961 | 0.847 | 0.715 | 0.549 | 0.412
NCI-H2228 | 0.44 | 0.452 | 0.566 | 0.351 | 0.402 | 0.323 | 0.356 | 0.356 | 0.289 | 0.134 | 0.73 | 0.611 | 0.652 | 0.364 | 0.367 | 0.629 | 0.593 | 0.649 | 0.326 | 0.215
NCI-H2342 |  |  |  |  |  | 0.681 | 0.856 | 0.771 | 0.791 | 0.744 | 0.483 | 0.646 | 0.464 | 0.393 | 0.267 |  |  |  |  | 
HCC-366 | 0.189 | 0.136 | 0.151 | 0.2 | 0.12 | 0.195 | 0.188 | 0.155 | 0.195 | 0.131 | 0.412 | 0.185 | 0.173 | 0.114 | 0.0885 | 0.122 | 0.0525 | 0.067 | 0.0321 | 0.04
NCI-H2405 | 0.539 | 0.543 | 0.434 | 0.389 | 0.474 | 1.14 | 1.12 | 0.898 | 1.06 | 0.791 | 0.498 | 0.374 | 0.3 | 0.219 | 0.186 | 0.699 | 0.392 | 0.336 | 0.253 | 0.167
Calu-6 | 1.09 | 0.92 | 0.909 | 0.757 | 0.439 |  |  |  |  |  |  |  |  |  |  | 0.764 | 0.811 | 0.694 | 0.561 | 0.424
201T | 0.747 | 0.72 | 0.639 | 0.673 | 0.719 | 0.321 | 0.365 | 0.287 | 0.346 | 0.381 | 0.341 | 0.306 | 0.311 | 0.296 | 0.237 | 1.03 | 0.953 | 0.812 | 0.679 | 0.371
CAL-12T | 0.531 |  | 0.339 | 0.327 | 0.371 | 1.16 | 1.3 | 1.27 | 1.25 | 0.749 | 0.418 | 0.414 | 0.402 | 0.191 | 0.144 | 0.848 | 0.853 | 0.853 | 0.46 | 0.286
HCC-44 | 0.665 | 0.597 | 0.609 | 0.533 | 0.571 | 0.683 | 0.662 | 0.617 | 0.664 | 0.673 | 1.07 | 0.878 | 1.06 | 1.14 | 1.29 | 0.619 | 0.51 | 0.669 | 0.27 | 0.131
NCI-H358 | 0.32 | 0.24 | 0.354 | 0.313 | 0.365 | 0.163 | 0.181 | 0.189 | 0.148 | 0.155 | 0.144 | 0.129 | 0.101 | 0.0794 | 0.0791 | 0.607 | 0.484 | 0.387 | 0.232 | 0.277
SW 900 |  |  |  |  |  | 0.449 | 0.492 |  | 0.517 | 0.316 | 0.454 | 0.273 | 0.276 | 0.222 | 0.183 |  |  |  |  | 
NCI-H2087 | 0.95 | 0.846 | 1.05 | 0.888 | 0.772 | 0.637 | 0.679 | 0.673 | 0.606 | 0.621 | 0.223 | 0.206 | 0.238 | 0.184 | 0.142 | 0.929 | 0.772 | 1.04 | 0.862 | 0.469
